Data from patent US20060111309A1, “Chalcomycin derivatives” (Biofrontera Discovery GmbH, priority 2002, published 2006).
In brackets after ≈: the same amount, converted by molar mass.

Experiments:
Type in all cases: cell-based
[1] = test system: Stapylococcus aureus; assay: agar diffusion test; details: 10 μg/9 mm Ø plate
[2] = test system: Escherichia coli; assay: agar diffusion test; details: 10 μg/9 mm Ø plate
[3] = test system: Bacillus subtillis; assay: agar diffusion test; details: 10 μg/9 mm Ø plate
[4] = test system: Candida albicans; assay: agar diffusion test; details: 10 μg/9 mm Ø plate
[5] = test system: Mucor miehei; assay: agar diffusion test; details: 10 μg/9 mm Ø plate
[6] = test system: Stapylococcus aureus; assay: dilution method MIC
[7] = test system: Escherichia coli; assay: dilution method MIC
[8] = test system: Bacillus subtillis; assay: dilution method MIC
[9] = test system: Chlorella sorokiniana; assay: dilution method MIC
[10] = test system: Scenedesmus subspicatus; assay: dilution method MIC

Row | Compound | diameter of the inhibition zone, SA [1] [mm] | diameter of the inhibition zone, EC [2] [mm] | diameter of the inhibition zone, BS [3] [mm] | diameter of the inhibition zone, CA [4] [mm] | diameter of the inhibition zone, MM [5] [mm] | MIC, SA [6] [µg/mL] | MIC, EC [7] [µg/mL] | MIC, BS [8] [µg/mL] | MIC, CS [9] [µg/mL] | MIC, SS [10] [µg/mL]
1 | CO[C@@H]1[C@H](O)[C@@H](C)O[C@@H](OC[C@H]2[C@@H]3O[C@H]3/C=C/C(=O)[C@@](C)(O)C[C@H](C)[C@H](O[C@@H]3O[C@H](C)C[C@H](OC)[C@H]3O)[C@@H](C)/C=C/C(=O)O[C@@H]2C)[C@@H]1OC [1a, Chalcomycin] | 30 | 32 | 25 | 0 | 0 | 0.39 (≈ 0.556 µM) | >50 | 6.25 (≈ 8.92 µM) | 50 (≈ 71.3 µM) | 50 (≈ 71.3 µM)
2 | CC[C@H]1OC(=O)[C@H](C)[C@@H](O[C@H]2C[C@@](C)(OC)[C@@H](O)[C@H](C)O2)[C@H](C)[C@@H](O[C@@H]2O[C@H](C)C[C@H](N(C)C)[C@H]2O)[C@](C)(O)C[C@@H](C)C(=O)[C@H](C)[C@@H](O)[C@]1(C)O [E, erythromycin] | 24 | 30 | 22 | – | – | – | – | – | – | –
3 | chalcomycin B [1b] | 23 | 28 | 21 | 0 | 0 | 0.39 | >50 | 6.25 | 50 | 50
